Laboratory results published in ChEMBL document CHEMBL6134890, “Terminally Symmetric β-Turn Peptides for Multidrug-Resistant Bacterial Infections” (J Med Chem, 2025).
Values after ≈ are worked out from the molar mass of the structure shown. Active and inactive are the calls of the source. The calls are words filed in the database; no cut-off is given here. Bridge positions count the residues as written; N and C are the ends. Square brackets hold non-standard residues; d marks the D form. Peptide text beside a SMILES is read from it. * marks the point of attachment. X1 = CC[C@H](C)CCCCC(=O)*; dDab = NCC[C@@H](N)C(=O)O; Dab = NCC[C@H](N)C(=O)O

Columns and labels:
[1] = system: Staphylococcus aureus; experiment: Antimicrobial activity against Staphylococcus aureus ATCC 25923 assessed as reduction in bacterial growth by broth dilution method; assay type: functional
[2] = system: Staphylococcus aureus; experiment: Antimicrobial activity against multi-drug resistant Staphylococcus aureus assessed as reduction in bacterial growth by broth dilution method; assay type: functional
[3] = system: Staphylococcus epidermidis; experiment: Antimicrobial activity against multi-drug resistant Staphylococcus epidermidis assessed as reduction in bacterial growth by broth dilution method; assay type: functional
[4] = system: Enterococcus faecalis; experiment: Antimicrobial activity against multi-drug resistant Enterococcus faecalis assessed as reduction in bacterial growth by broth dilution method; assay type: functional
[5] = system: Escherichia coli; experiment: Antimicrobial activity against Escherichia coli ATCC 25922 assessed as reduction in bacterial growth by broth dilution method; assay type: functional
[6] = system: Escherichia coli; experiment: Antimicrobial activity against multi-drug resistant Escherichia coli assessed as reduction in bacterial growth by broth dilution method; assay type: functional
[7] = system: Klebsiella pneumoniae; experiment: Antimicrobial activity against multi-drug resistant Klebsiella pneumoniae assessed as reduction in bacterial growth by broth dilution method; assay type: functional
[8] = system: Acinetobacter baumannii; experiment: Antimicrobial activity against multi-drug resistant Acinetobacter baumannii assessed as reduction in bacterial growth by broth dilution method; assay type: functional
[9] = Hemolytic activity in human Red blood cell assessed as hemolysis incubated for 1 hrs by microplate reader based analysis; assay type: toxicity; conditions: erythrocyte
[10] = system: BEAS-2B; experiment: Cytotoxicity against human BEAS-2B cells at 2 to 256 uM measured after 24 hrs by CCK-8 method; assay type: toxicity, cell-based; conditions: dose 2-256 µM
[11] = system: HEK-293T; experiment: Cytotoxicity against HEK293T cells at 2 to 256 uM measured after 24 hrs by CCK-8 method; assay type: toxicity, cell-based; conditions: human, dose 2-256 µM
[12] = system: L02; experiment: Cytotoxicity against human LO2 cells at 2 to 256 uM measured after 24 hrs by CCK-8 method; assay type: toxicity, cell-based; conditions: l02, 24 h, dose 2-256 µM
[13] = system: Staphylococcus aureus; experiment: Antimicrobial activity against multi-drug resistant Staphylococcus aureus assessed as fold increase in MIC in presence of NaCl; assay type: functional
[14] = system: Staphylococcus aureus; experiment: Antimicrobial activity against multi-drug resistant Staphylococcus aureus assessed as fold increase in MIC in presence of MgCl2; assay type: functional
[15] = system: Escherichia coli; experiment: Antimicrobial activity against multi-drug resistant Escherichia coli assessed as fold increase in MIC in presence of NaCl; assay type: functional
[16] = system: Escherichia coli; experiment: Antimicrobial activity against multi-drug resistant Escherichia coli assessed as fold increase in MIC in presence of MgCl2; assay type: functional
[17] = system: Staphylococcus aureus; experiment: Antimicrobial activity against multi-drug resistant Staphylococcus aureus assessed as fold increase in MIC measured after 6 hrs in 25% plasma; assay type: functional
[18] = system: Escherichia coli; experiment: Antimicrobial activity against multi-drug resistant Escherichia coli assessed as fold increase in MIC measured after 6 hrs in 25% plasma; assay type: functional
[19] = Half life of the compound in 25% plasma; assay type: ADME, cell-free
[20] = system: Escherichia coli; experiment: Antimicrobial activity against multi-drug resistant Escherichia coli assessed as reduction in bacterial growth at 2 times MIC measured after 1 hrs in presence of trypsin by microplate reader based analysis; assay type: functional, organism-based
[21] = system: Escherichia coli; experiment: Antimicrobial activity against multi-drug resistant Escherichia coli assessed as reduction in bacterial growth at 2 times MIC measured after 1 hrs in presence of chymotrypsin by microplate reader based analysis; assay type: functional, organism-based
[22] = system: Staphylococcus aureus; experiment: Antimicrobial activity against multi-drug resistant Staphylococcus aureus assessed as reduction in bacterial growth at 2 times MIC measured after 1 hrs in presence of trypsin by microplate reader based analysis; assay type: functional, organism-based
[23] = system: Staphylococcus aureus; experiment: Antimicrobial activity against multi-drug resistant Staphylococcus aureus assessed as reduction in bacterial growth at 2 times MIC measured after 1 hrs in presence of chymotrypsin by microplate reader based analysis; assay type: functional, organism-based
[24] = system: Escherichia coli; experiment: Antibacterial activity against Escherichia coli […] at sub-inhibitory concentration measured after 7 passages for 18 hrs; assay type: functional, organism-based
[25] = system: Staphylococcus aureus; experiment: Antibacterial activity against Staphylococcus aureus ATCC 25923 at sub-inhibitory concentration measured after 7 passages for 18 hrs; assay type: functional, organism-based
[26] = system: Escherichia coli; experiment: Bactericidal activity against multi-drug resistant Escherichia coli at 1 times MIC preincubated with LPS for 1 hrs followed by bacterial addition and measured after 18 hrs by microplate reader based analysis; assay type: functional, organism-based; conditions: time 19.0 hrs
[27] = system: Cell membrane; experiment: Induction of outer membrane permeabilization in multi-drug resistant Escherichia coli assessed as NPN uptake at 1 to 4 times MIC measured within 1 min by fluorescence based analysis; assay type: subcellular
[28] = system: Cell membrane; experiment: Induction of cytoplasmic membrane depolarization in multi-drug resistant Escherichia coli at 1 to 4 times MIC measured within 1 min by DiSC3-5 fluorescent dye based analysis
[29] = system: Cell membrane; experiment: Induction of cytoplasmic membrane depolarization in multi-drug resistant Staphylococcus aureus at 1 to 4 times MIC measured within 1 min by DiSC3-5 fluorescent dye based analysis

Row | SMILES | MIC [1] [µM] | MIC [2] [µM] | MIC [3] [µM] | MIC [4] [µM] | MIC [5] [µM] | MIC [6] [µM] | MIC [7] [µM] | MIC [8] [µM] | HC10 [9] [µM] | Activity [10] | Activity [11] | Activity [12] | further results
1 | NCCCC[C@H](NC(=O)[C@H](Cc1ccccc1)NC(=O)[C@H](CCCCN)NC(=O)[C@H](Cc1ccccc1)NC(=O)[C@H](CCCCN)NC(=O)[C@@H]1CCCN1C(=O)[C@H](Cc1c[nH]c2ccccc12)NC(=O)[C@H](Cc1c[nH]c2ccccc12)NC(=O)[C@H](Cc1c[nH]c2ccccc12)NC(=O)[C@@H]1CCCN1C(=O)[C@H](CCCCN)NC(=O)[C@H](Cc1ccccc1)NC(=O)[C@H](CCCCN)NC(=O)[C@H](Cc1ccccc1)NC(=O)[C@@H](N)CCCCN)C(N)=O (H-KFKFKPWWWPKFKFK-NH2) | 4 (≈ 8.51 µg/mL) | 4 (≈ 8.51 µg/mL) | 4 (≈ 8.51 µg/mL) | 2 (≈ 4.26 µg/mL) | 2 (≈ 4.26 µg/mL) | 4 (≈ 8.51 µg/mL) | 4 (≈ 8.51 µg/mL) | 4 (≈ 8.51 µg/mL) | > 256 | Toxic | Toxic | Toxic | –
2 | CC(C)C[C@H](NC(=O)[C@H](CCCCN)NC(=O)[C@H](CC(C)C)NC(=O)[C@H](CCCCN)NC(=O)[C@@H]1CCCN1C(=O)[C@H](Cc1c[nH]c2ccccc12)NC(=O)[C@H](Cc1c[nH]c2ccccc12)NC(=O)[C@H](Cc1c[nH]c2ccccc12)NC(=O)[C@@H]1CCCN1C(=O)[C@H](CCCCN)NC(=O)[C@H](CC(C)C)NC(=O)[C@H](CCCCN)NC(=O)[C@H](CC(C)C)NC(=O)[C@@H](N)CCCCN)C(=O)N[C@@H](CCCCN)C(N)=O (H-KLKLKPWWWPKLKLK-NH2) | 8 (≈ 15.9 µg/mL) | 8 (≈ 15.9 µg/mL) | 8 (≈ 15.9 µg/mL) | 8 (≈ 15.9 µg/mL) | 4 (≈ 7.97 µg/mL) | 4 (≈ 7.97 µg/mL) | 4 (≈ 7.97 µg/mL) | 8 (≈ 15.9 µg/mL) | > 256 | Toxic | Toxic | Toxic | fold change (FC) [13]: 2; fold change (FC) [14]: 2; fold change (FC) [15]: 2; fold change (FC) [16]: 2; fold change (FC) [17]: 2; fold change (FC) [18]: 2; half-life [19]: 2120 min; Activity [20]: inactive; Activity [21]: inactive; Activity [22]: inactive; Activity [23]: inactive
3 | CC(C)[C@H](NC(=O)[C@H](CCCCN)NC(=O)[C@@H](NC(=O)[C@H](CCCCN)NC(=O)[C@H](Cc1ccccc1)NC(=O)[C@@H]1CCCN1C(=O)[C@H](Cc1c[nH]c2ccccc12)NC(=O)[C@H](Cc1c[nH]c2ccccc12)NC(=O)[C@H](Cc1c[nH]c2ccccc12)NC(=O)[C@@H]1CCCN1C(=O)[C@H](Cc1ccccc1)NC(=O)[C@H](CCCCN)NC(=O)[C@@H](NC(=O)[C@H](CCCCN)NC(=O)[C@@H](NC(=O)[C@@H](N)CCCCN)C(C)C)C(C)C)C(C)C)C(=O)N[C@@H](CCCCN)C(N)=O (H-KVKVKFPWWWPFKVKVK-NH2) | 8 (≈ 17.8 µg/mL) | 8 (≈ 17.8 µg/mL) | 4 (≈ 8.92 µg/mL) | 4 (≈ 8.92 µg/mL) | 4 (≈ 8.92 µg/mL) | 4 (≈ 8.92 µg/mL) | 16 (≈ 35.7 µg/mL) | 8 (≈ 17.8 µg/mL) | 243.97 | Toxic | Toxic | Toxic | –
4 | CC(C)CCCCC(=O)N[C@@H](CCN)C(=O)N[C@H](C(=O)N[C@@H](CCN)C(=O)N[C@H]1CCNC(=O)[C@H]([C@@H](C)O)NC(=O)[C@H](CCN)NC(=O)[C@H](CCN)NC(=O)[C@H](CC(C)C)NC(=O)[C@@H](Cc2ccccc2)NC(=O)[C@@H](CCN)NC1=O)[C@@H](C)O.CC[C@H](C)CCCCC(=O)N[C@@H](CCN)C(=O)N[C@H](C(=O)N[C@@H](CCN)C(=O)N[C@H]1CCNC(=O)[C@H]([C@@H](C)O)NC(=O)[C@H](CCN)NC(=O)[C@H](CCN)NC(=O)[C@H](CC(C)C)NC(=O)[C@@H](Cc2ccccc2)NC(=O)[C@@H](CCN)NC1=O)[C@@H](C)O (X1-[Dab]T[Dab][Dab][dDab][dF]L[Dab][Dab]T; lactam 4-C) | – | – | – | – | – | – | – | – | – | – | – | – | Activity [24]: inactive; Activity [25]: inactive; Activity [26]: inactive; Activity [27]: Active; Activity [28]: Active; Activity [29]: inactive
